“Also recorded” adds a separate entry of the source.
What was measured:
[1] = test system: liver spots of women; assay: Whitening effect of preparation composed of ranunculin, deoxypodophyllotoxin and SB365 on clinical trial; format: in vivo, human; settings: concluded from compositions with and without SB365
Experimental: Pharmaceutical composition: 10 mg of ranunculin, 50 mg of deoxypodophyllotoxin, and 15 mg of SB365 were mixed well together with the base (19 g) to obtain pharmaceutical composition and the composition was rubbed on the area of liver spots three times a day till the time of curing.
A composition from which SB365 which was not effective on tyrosinase was deleted was used. The composition were administered to five women (F, G, H, I, K) having liver spots.

[2] = test system: Tyrosinase; assay: Measurement of inhibition action against tyrosinase; format: biochemical
Experimental: Tyrosinase was purchased from Sigma Company. The enzyme was dissolved in […]. Sodium phosphate buffer (0.1 M, pH 6.0), a substrate of enzyme and adjusted 1.6 mg/ml of concentration to obtain an enzyme solution. Sample was dissolved in sodium phosphate buffer and the undissolved residue was filtered out. 0.7 ml of the buffer, 0.2 ml of sample and 0.1 ml (15.7 unit/ml) of the enzyme solution were mixed and after 60 seconds, absorbance was measured at 475 nm by spectrophotometer.
By the following equation, inhibition ratio(%) of tyrosinase was calculated.
Inhibition ratio(%) of tyrosinase=[1−(S−B)/C]×100
wherein, • S: Test tube having enzyme and sample, • B: Test tube having sample, • C: Test tube having enzyme.

[3] = Water solubility; format: physicochemical

Row | Structure (SMILES) | whitening effect in clinical trials [1] | effect against tyrosinase (in words) [2] | inhibition against tyrosinase ([2]; at 0.03 μg/ml) [%] | inhibition of activity of tyrosinase ([2]; at 0.03/g/ml) [%] | water solubility [3]
1 | CC1OC(OC2C(O[C@H]3CC[C@@]4(C)C(CC[C@]5(C)C4CC=C4C6CC(C)(C)CC[C@]6(C(=O)O)CC[C@]45C)[C@]3(C)CO)OCC(OC3OC(CO)C(O)C(O)C3O)C2O)C(O)C(O)C1O (stereo partly drawn) [SB365, 3-O-α-L-ramnopyranosyl(1→2)-[β-D-glucopyranosyl(1→4)]-α-L-arabinopyranoside] | have whitening effect; also recorded: excellent whitening effect | not effective; also recorded: did not inhibit; also recorded: no effect | – | – | –
2 | COc1cc([C@@H]2c3cc4c(cc3C[C@H]3COC(=O)[C@@H]32)OCO4)cc(OC)c1OC [Deoxypodophyllotoxin] | – | – | 38 | 38 | very low and low

— patent publication US20080124287A1, “Cosmetic composition having whitening effect comprising extract of pulsatilla radix as main ingredient” (priority 2002, published 2008)
